# Biological target: T1, Rsanα1 nicotinic acetylcholine receptor α subunit (Rhipicephalus sanguineus, UniProt V9Z9T0)
# T1 construct: full-length Rsanα1 (GenBank KF695387) expressed in Xenopus laevis oocytes; with chicken β2 nAChR subunit
# Test: two-electrode voltage clamp in Xenopus oocytes, concentration-response curve (agonist)
# Type: cell-based
# T1 sequence (V9Z9T0 45-525): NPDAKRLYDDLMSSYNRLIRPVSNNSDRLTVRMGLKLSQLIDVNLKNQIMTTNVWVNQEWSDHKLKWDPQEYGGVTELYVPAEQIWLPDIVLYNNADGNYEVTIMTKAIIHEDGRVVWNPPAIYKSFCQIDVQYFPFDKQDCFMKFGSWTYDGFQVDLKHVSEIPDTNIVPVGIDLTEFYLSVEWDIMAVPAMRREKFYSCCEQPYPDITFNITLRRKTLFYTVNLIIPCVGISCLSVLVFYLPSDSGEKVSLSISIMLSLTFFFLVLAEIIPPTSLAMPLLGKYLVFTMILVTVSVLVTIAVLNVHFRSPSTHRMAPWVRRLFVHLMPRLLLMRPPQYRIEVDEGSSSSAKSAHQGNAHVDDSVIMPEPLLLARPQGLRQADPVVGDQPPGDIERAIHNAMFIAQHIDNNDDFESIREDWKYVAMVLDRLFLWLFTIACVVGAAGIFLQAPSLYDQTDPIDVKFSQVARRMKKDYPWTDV
# T1 sequence (P09484 19-491 partner): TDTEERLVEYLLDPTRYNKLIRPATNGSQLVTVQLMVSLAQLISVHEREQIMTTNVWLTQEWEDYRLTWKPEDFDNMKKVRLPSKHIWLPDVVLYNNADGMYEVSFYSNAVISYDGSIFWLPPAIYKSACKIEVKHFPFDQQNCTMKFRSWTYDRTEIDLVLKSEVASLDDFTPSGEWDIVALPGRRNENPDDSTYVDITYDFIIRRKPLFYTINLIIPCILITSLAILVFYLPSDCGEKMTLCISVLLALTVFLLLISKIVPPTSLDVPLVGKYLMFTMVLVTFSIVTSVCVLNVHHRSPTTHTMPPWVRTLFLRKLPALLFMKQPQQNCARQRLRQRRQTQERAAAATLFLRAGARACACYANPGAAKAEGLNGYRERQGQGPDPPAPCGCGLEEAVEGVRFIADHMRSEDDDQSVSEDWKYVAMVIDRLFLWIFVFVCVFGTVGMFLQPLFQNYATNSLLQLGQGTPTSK
smiles,measurement,value
CC(=O)OCC[N+](C)(C)C [acetylcholine],EC50,10.7 µM

# Reference: paper PMC4029082, “Functional characterisation of a nicotinic acetylcholine receptor α subunit from the brown dog tick, Rhipicephalus sanguineus^” (International Journal for Parasitology, 2014)
